Measurements taken from PubChem BioAssay (NCI).
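These data come from cells grown in 96-well plates and exposed to compound for 48 hours at five concentrations. TGI is the concentration that stops growth completely.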

Experiments:
Test in all cases: NCI anticancer screen, dose series, 48 h
[1] = system: DU-145 prostate
[2] = system: HCC-2998 colon
[3] = system: HT29 colon
[4] = system: KM12 colon
[5] = system: NCI-H460 lung
[6] = system: RPMI-8226 leukemia
[7] = system: SNB-75 CNS
[8] = system: SR leukemia
[9] = system: SW-620 colon

## CSCSSC
[1]
  TGI: > 100 µM
[2]
  TGI: > 100 µM
[3]
  TGI: > 100 µM
[4]
  TGI: > 100 µM
[5]
  TGI: > 100 µM
[6]
  TGI: > 100 µM
[7]
  TGI: > 100 µM
[8]
  TGI: > 100 µM
[9]
  TGI: > 100 µM

## Cc1ccc(/C(O)=C/c2nc3ccccc3sc2=O)c(C)c1
[1]
  TGI: > 100 µM
[2]
  TGI: > 100 µM
[3]
  TGI: > 100 µM
[4]
  TGI: > 100 µM
[5]
  TGI: > 100 µM
[6]
  TGI: 77.6 µM
[8]
  TGI: 75.8 µM

## CC(C)=NN/C(=N\S(=O)(=O)c1ccc(Oc2cccc(Cl)c2C#N)cc1)Nc1ccc(Cl)cc1
[1]
  TGI: > 100 µM
[3]
  TGI: > 100 µM
[4]
  TGI: > 100 µM
[5]
  TGI: > 100 µM
[6]
  TGI: > 100 µM
[9]
  TGI: > 100 µM

## O=C1C[C@@H](C(=O)OCc2ccccc2)NC(=O)C[C@@H](C(=O)OCc2ccccc2)NC(=O)C[C@@H](C(=O)OCc2ccccc2)N1
[1]
  TGI: > 100 µM
[2]
  TGI: > 100 µM
[3]
  TGI: > 100 µM
[4]
  TGI: > 100 µM
[5]
  TGI: > 100 µM
[6]
  TGI: > 100 µM
[7]
  TGI: 13.7 µM
[8]
  TGI: 20.7 µM
[9]
  TGI: > 100 µM

## O=[N+]([O-])c1ccc2sc(C=Nc3cnccn3)cc2c1
[1]
  TGI: > 100 µM
[2]
  TGI: 40.7 µM
[3]
  TGI: > 100 µM
[4]
  TGI: > 100 µM
[5]
  TGI: > 100 µM
[6]
  TGI: 52.9 µM
[7]
  TGI: 63.5 µM
[8]
  TGI: 45.5 µM
[9]
  TGI: > 100 µM

## NCCCN(CCCN(C(=O)Nc1ccccc1)c1ccccc1)C(=O)Nc1ccccc1
[1]
  TGI: > 100 µM
[2]
  TGI: 62.3 µM
[3]
  TGI: > 100 µM
[5]
  TGI: 94.8 µM
[6]
  TGI: 73 µM
[7]
  TGI: 77.6 µM
[8]
  TGI: > 100 µM
[9]
  TGI: 52.3 µM

## CCOC(=O)c1nc2ccc(C(F)(F)F)cc2nc1Oc1cc(OC)c(OC)c(OC)c1
[1]
  TGI: > 100 µM
[3]
  TGI: > 100 µM
[4]
  TGI: > 100 µM
[5]
  TGI: > 100 µM
[6]
  TGI: > 100 µM
[7]
  TGI: 68.6 µM
[9]
  TGI: > 100 µM

## O=C1CCCCCCCCCCC1CN1CCCC1 (centres undefined)
[1]
  TGI: > 100 µM
[2]
  TGI: 70.6 µM
[3]
  TGI: 77.1 µM
[4]
  TGI: > 100 µM
[5]
  TGI: > 100 µM
[6]
  TGI: > 100 µM
[7]
  TGI: > 100 µM
[9]
  TGI: > 100 µM

## O=C1NC(=O)C(C(CC(=O)c2ccc([N+](=O)[O-])cc2)c2ccccc2)C(=O)N1 (centres undefined)
[1]
  TGI: > 100 µM
[3]
  TGI: > 100 µM
[4]
  TGI: 30.4 µM
[5]
  TGI: > 100 µM
[6]
  TGI: > 100 µM
[7]
  TGI: > 100 µM
[8]
  TGI: > 100 µM
[9]
  TGI: > 100 µM

## CC(=O)N1CC(C)(C)c2c(C)c(O)c(C)c(C)c21
[1]
  TGI: > 100 µM
[2]
  TGI: > 100 µM
[3]
  TGI: > 100 µM
[4]
  TGI: > 100 µM
[5]
  TGI: > 100 µM
[6]
  TGI: > 100 µM
[7]
  TGI: > 100 µM
[9]
  TGI: > 100 µM

## COc1ccc(C2=Nc3cc(C)c(C)cc3NC(c3ccccc3)C2)cc1 (centres undefined)
[1]
  TGI: > 100 µM
[2]
  TGI: > 100 µM
[3]
  TGI: > 100 µM
[4]
  TGI: > 100 µM
[5]
  TGI: > 100 µM
[6]
  TGI: > 100 µM
[8]
  TGI: 54.5 µM
[9]
  TGI: > 100 µM

## CC1C(=O)N(c2ccccc2)NC12CCCc1ccccc12 (centres undefined)
[1]
  TGI: > 100 µM
[2]
  TGI: > 100 µM
[3]
  TGI: > 100 µM
[4]
  TGI: > 100 µM
[5]
  TGI: > 100 µM
[6]
  TGI: > 100 µM
[7]
  TGI: > 100 µM
[8]
  TGI: > 100 µM
[9]
  TGI: > 100 µM

## Cc1cc(S(=O)(=O)N/C(=C(\C#N)C(=O)c2ccc(Cl)cc2)[n+]2ccc(N(C)C)cc2)c([S-])cc1Cl
[1]
  TGI: > 100 µM
[2]
  TGI: > 100 µM
[3]
  TGI: 95.1 µM
[4]
  TGI: > 100 µM
[5]
  TGI: > 100 µM
[6]
  TGI: > 100 µM
[8]
  TGI: > 100 µM

## CC(=C(c1ccccc1)c1ccccc1)N1C(=O)CC(=O)N1C
[1]
  TGI: > 100 µM
[2]
  TGI: > 100 µM
[3]
  TGI: > 100 µM
[4]
  TGI: > 100 µM
[5]
  TGI: > 100 µM
[6]
  TGI: > 100 µM
[7]
  TGI: > 100 µM
[9]
  TGI: > 100 µM

## COc1ccc(N2C(=O)CC(=O)N(C(=O)COc3ccc(OCC(=O)N4C(=O)CC(=O)N(c5ccc(OC)cc5)C4=S)cc3)C2=S)cc1
[1]
  TGI: > 100 µM
[2]
  TGI: > 100 µM
[3]
  TGI: > 100 µM
[4]
  TGI: 32.6 µM
[5]
  TGI: > 100 µM
[6]
  TGI: > 100 µM
[7]
  TGI: > 100 µM
[9]
  TGI: > 100 µM

## C[N+](C)(C)c1ccc(C(N)C(=O)O)cc1 (centres undefined)
[1]
  TGI: > 100 µM
[2]
  TGI: > 100 µM
[3]
  TGI: > 100 µM
[4]
  TGI: > 100 µM
[5]
  TGI: > 100 µM
[6]
  TGI: > 100 µM
[7]
  TGI: > 100 µM
[8]
  TGI: > 100 µM
[9]
  TGI: > 100 µM

## OCCO/N=C1\C(c2c(O)[nH]c3ccccc23)=Nc2ccccc21
[1]
  TGI: > 100 µM
[2]
  TGI: > 100 µM
[3]
  TGI: > 100 µM
[4]
  TGI: > 100 µM
[5]
  TGI: > 100 µM
[6]
  TGI: > 100 µM
[7]
  TGI: > 100 µM
[8]
  TGI: > 100 µM
[9]
  TGI: > 100 µM

## COc1cc([C@@H]2c3cc4c(cc3[C@@H](c3c(O)cc(O)c5c3O[C@H](c3ccc(O)c(O)c3)[C@@H](O)C5)[C@H]3COC(=O)[C@H]23)OCO4)cc(OC)c1OC
[1]
  TGI: 3.22 µM
[2]
  TGI: 3.48 µM
[3]
  TGI: 63.9 µM
[4]
  TGI: 3.33 µM
[5]
  TGI: 3.72 µM
[6]
  TGI: 59.4 µM
[9]
  TGI: > 100 µM

## CN(C)c1nc(N)nc(CS)n1
[1]
  TGI: > 100 µM
[2]
  TGI: > 100 µM
[3]
  TGI: > 100 µM
[4]
  TGI: > 100 µM
[5]
  TGI: > 100 µM
[6]
  TGI: > 100 µM
[7]
  TGI: > 100 µM
[8]
  TGI: > 100 µM
[9]
  TGI: > 100 µM

## Cc1cccc(Nc2nn3c(=O)c4c5c(sc4nc3s2)CCCC5)c1
[1]
  TGI: > 100 µM
[3]
  TGI: > 100 µM
[4]
  TGI: > 100 µM
[5]
  TGI: > 100 µM
[7]
  TGI: 78.4 µM
[8]
  TGI: > 100 µM
[9]
  TGI: > 100 µM

## COc1ccc2c3c1OC1C(=O)C=CC4(CC2)N(C)CCC314 (centres undefined)
[1]
  TGI: > 100 µM
[2]
  TGI: 27.4 µM
[3]
  TGI: > 100 µM
[4]
  TGI: 43.4 µM
[5]
  TGI: 71.1 µM
[6]
  TGI: 45.6 µM
[7]
  TGI: > 100 µM
[8]
  TGI: 33.7 µM
[9]
  TGI: > 100 µM

## C=C/C(C)=C\CC1[C@](C)(O)CC[C@H]2C(C)(C)C(=O)CC[C@]12C (some centres undefined)
[1]
  TGI: > 100 µM
[3]
  TGI: > 100 µM
[4]
  TGI: > 100 µM
[5]
  TGI: > 100 µM
[6]
  TGI: > 100 µM
[7]
  TGI: > 100 µM
[8]
  TGI: 66.5 µM
[9]
  TGI: > 100 µM

## CC1CCCC2(CC[N+](C)(CCC[N+](C)(C)C)CC2)C1 (centres undefined)
[1]
  TGI: > 100 µM
[3]
  TGI: > 100 µM
[4]
  TGI: > 100 µM
[5]
  TGI: > 100 µM
[6]
  TGI: > 100 µM
[7]
  TGI: > 100 µM
[8]
  TGI: > 100 µM
[9]
  TGI: > 100 µM

## Cc1ccc(OCC2OC(n3cnc4c(Cl)nc(N)nc43)CC2Oc2ccc(C)cc2)cc1 (centres undefined)
[1]
  TGI: > 100 µM
[2]
  TGI: > 57.4 µM
[3]
  TGI: > 100 µM
[4]
  TGI: > 100 µM
[5]
  TGI: > 100 µM
[6]
  TGI: > 100 µM
[7]
  TGI: > 100 µM
[8]
  TGI: > 100 µM
[9]
  TGI: > 100 µM
